pIC50: −log10 of the molar value. Active and inactive are the calls of the source. The rule behind the calls is not given here.
Assays:
[1] = Inhibition of Mycobacterium tuberculosis WecA
PD002 = test: Inhibition of cell migration in human PD002 cells at 0.1 uM incubated for 0.5 hrs by crystal violet staining based Boyden chamber assay; type: functional
[2] = Inhibition of N-terminal 6x-His-tagged Hydrogenivirga-sp. 128-5-R1-1 MraY expressed in Escherichia coli NiCo21(DE3) incubated for 2 hrs by reversed-phase HPLC analysis
[3] = Inhibition of Escherichia coli WecA incubated for 2 hrs using UDP-Glucosamine-C6-FITC substrate by reversed-phase HPLC analysis; design: species or system Escherichia coli BL21
[4] = Inhibition of N-terminal His9-tagged Methanocaldococcus jannaschii DSM 2661 AglH incubated for 2 hrs using UDP-GlcN-Cg-FITC and alpha-dihydroundecap-renyl phosphate by reversed-phase HPLC analysis
[5] = target: T1, UDP-N-acetylglucosamine--dolichyl-phosphate N-acetylglucosaminephosphotransferase (Homo sapiens, UniProt Q9H3H5); test: Inhibition of human DPAGT1 expressed in HEK293 (Expi293) cells incubated for 2 hrs using UDP-GlcN-Cg-FITC and alpha-dihydroundecap-renyl phosphate by reversed-phase HPLC analysis; type: cell-based
T1 sequence (Q9H3H5 whole entry): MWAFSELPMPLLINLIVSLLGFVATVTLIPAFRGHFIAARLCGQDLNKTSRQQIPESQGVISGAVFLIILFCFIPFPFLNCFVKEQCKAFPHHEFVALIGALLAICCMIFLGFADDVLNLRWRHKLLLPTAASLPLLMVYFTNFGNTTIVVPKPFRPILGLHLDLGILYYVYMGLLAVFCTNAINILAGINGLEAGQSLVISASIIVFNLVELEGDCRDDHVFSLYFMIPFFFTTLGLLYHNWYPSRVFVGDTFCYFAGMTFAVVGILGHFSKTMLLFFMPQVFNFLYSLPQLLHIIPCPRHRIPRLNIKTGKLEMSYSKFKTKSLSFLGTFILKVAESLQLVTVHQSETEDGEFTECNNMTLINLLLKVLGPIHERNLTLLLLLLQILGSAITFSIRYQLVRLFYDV

KB = test: Cytotoxicity in human KB cells assessed as reduction in cell viability incubated for 72 hrs by MTT assay; type: functional, cell-based
SiHa = test: Cytotoxicity in human SiHa cells assessed as reduction in cell viability incubated for 72 hrs by MTT assay; type: functional, cell-based
HCT-116 = test: Cytotoxicity in human HCT-116 cells assessed as reduction in cell viability incubated for 72 hrs by MTT assay; type: functional, cell-based; details: HCT-116, 72 h
DLD-1 = test: Cytotoxicity in human DLD-1 cells assessed as reduction in cell viability incubated for 72 hrs by MTT assay; type: functional, cell-based; details: DLD-1, 72 h
CAPAN-1 = test: Cytotoxicity in human CAPAN-1 cells assessed as reduction in cell viability incubated for 72 hrs by MTT assay; type: functional, cell-based; details: CAPAN-1, 72 h
PANC-1 = test: Cytotoxicity in human PANC-1 cells assessed as reduction in cell viability incubated for 72 hrs by MTT assay; type: functional, cell-based; details: PANC-1, 72 h
ASPC1 = test: Cytotoxicity in human ASPC1 cells assessed as reduction in cell viability incubated for 72 hrs by MTT assay; type: functional, cell-based; details: ASPC1, 72 h
[6] = Cytotoxicity in human PD002 cells assessed as reduction in cell viability incubated for 72 hrs by MTT assay; type: functional, cell-based; details: PD002, 72 h
[7] = Cytotoxicity in human hTERT-HPNE cells assessed as reduction in cell viability incubated for 72 hrs by MTT assay; type: cell-based
Vero = test: Cytotoxicity in African green monkey Vero cells assessed as reduction in cell viability incubated for 72 hrs by MTT assay; type: cell-based; details: Chlorocebus sabaeus
[8] = Cytotoxicity in mouse L1210 cells assessed as reduction in cell viability incubated for 72 hrs by MTT assay; details: L1210, 72 h
[9] = Inhibition of Mycobacterium tuberculosis WecA by fluorescence based assay

Row | SMILES | pIC50 [2] | pIC50 [3] | pIC50 [4] | pIC50 [5] | also measured
1 | CCCCc1ccc(NC(=O)C2=CCN(C)[C@@H]([C@H](O[C@@H]3O[C@H](CN)[C@@H](O)[C@H]3O)[C@H]3O[C@@H](n4ccc(=O)[nH]c4=O)[C@H](O)[C@@H]3O)C(=O)N2C)cc1 | – | – | – | – | pIC50 [1]: 7.08
2 | Nc1ccn([C@@H]2O[C@H](CO)[C@@H](O)C2(F)F)c(=O)n1 | – | – | – | – | inhibition (PD002): Active
3 | CO[C@H]1[C@@H](OC)[C@H](n2ccc(=O)[nH]c2=O)O[C@@H]1[C@@H](O[C@H]1OC(C(=O)NCc2ccc(N3CCC(Oc4ccc(OC(F)(F)F)cc4)CC3)cc2)=C[C@H](O)[C@@H]1O)C(N)=O | 5.30 | 5.00 | 4.52 | 4.70 | –
4 | NC(=O)[C@H](O[C@H]1OC(C(=O)NCc2ccc(N3CCC(Oc4ccc(OC(F)(F)F)cc4)CC3)cc2)=C[C@H](O)[C@@H]1O)[C@H]1O[C@@H](n2ccc(=O)[nH]c2=O)[C@H](O)[C@@H]1O | < 4.30 | 4.52 | < 4.30 | < 4.30 | –
5 | CO[C@@H]1[C@H](O)[C@@H]([C@@H](O[C@H]2OC(C(=O)NCc3ccc(N4CCC(Oc5ccc(OC(F)(F)F)cc5)CC4)cc3)=C[C@H](O)[C@@H]2O)C(N)=O)O[C@H]1n1ccc(=O)[nH]c1=O | < 4.30 | 4.70 | 4.82 | – | pIC50 (KB): 4.46; pIC50 (SiHa): 4.60; pIC50 (HCT-116): 4.60; pIC50 (DLD-1): 4.46; pIC50 (CAPAN-1): 4.40; pIC50 (PANC-1): 4.35; pIC50 (ASPC1): 4.52; pIC50 [6]: 4.30; pIC50 [7]: < 4.30; pIC50 (Vero): < 4.30; pIC50 [8]: < 4.30
6 | CO[C@H]1[C@@H](OC)[C@H](n2ccc(=O)[nH]c2=O)O[C@@H]1[C@@H](O[C@H]1OC(C(=O)N[C@H]2CCCCNC2=O)=C[C@H](O)[C@@H]1O)C(N)=O | < 4.30 | 7.22 | 5.60 | 5.35 | pIC50 [9]: 7.22; pIC50 (KB): < 4.30; pIC50 (SiHa): < 4.30; pIC50 (HCT-116): < 4.30; pIC50 (DLD-1): < 4.30; pIC50 (CAPAN-1): < 4.30; pIC50 (PANC-1): < 4.30; pIC50 (ASPC1): < 4.30; pIC50 [6]: < 4.30; pIC50 [7]: < 4.30; pIC50 (Vero): < 4.30; pIC50 [8]: < 4.30
7 | CO[C@H]1[C@@H](O)[C@H](n2ccc(=O)[nH]c2=O)O[C@@H]1[C@@H](O[C@H]1OC(C(=O)N[C@H]2CCCCNC2=O)=C[C@H](O)[C@@H]1O)C(N)=O [CAPURAMYCIN] | 6.89 | < 4.30 | < 4.30 | < 4.30 | pIC50 (KB): < 4.30; pIC50 (SiHa): < 4.30; pIC50 (HCT-116): < 4.30; pIC50 (DLD-1): < 4.30; pIC50 (CAPAN-1): < 4.30; pIC50 (PANC-1): < 4.30; pIC50 (ASPC1): < 4.30; pIC50 [6]: < 4.30; pIC50 [7]: < 4.30; pIC50 (Vero): < 4.30; pIC50 [8]: < 4.30
8 | CO[C@@H]1[C@H](O)[C@@H]([C@@H](O[C@H]2OC(C(=O)N[C@H]3CCCCNC3=O)=C[C@H](O)[C@@H]2O)C(N)=O)O[C@H]1n1ccc(=O)[nH]c1=O | 5.07 | 4.52 | 4.70 | 4.94 | –
9 | NC[C@H]1O[C@@H](O[C@H]([C@H]2O[C@@H](n3ccc(=O)[nH]c3=O)[C@H](O)[C@@H]2O)[C@H](NCCCC(=O)NCc2ccc(N3CCC(Oc4ccc(OC(F)(F)F)cc4)CC3)cc2)C(N)=O)[C@H](O)[C@@H]1O | 8.00 | 8.00 | 8.00 | 8.00 | –
10 | CO[C@H]1[C@@H](O)[C@H](n2ccc(=O)[nH]c2=O)O[C@@H]1[C@@H](O[C@H]1OC(CNCc2ccc(N3CCC(Oc4ccc(OC(F)(F)F)cc4)CC3)cc2)=C[C@H](O)[C@@H]1O)C(N)=O | < 4.30 | < 4.30 | < 4.30 | < 4.30 | –
11 | CO[C@@H]1[C@H](O)[C@@H]([C@@H](O[C@H]2OC(CNCc3ccc(N4CCC(Oc5ccc(OC(F)(F)F)cc5)CC4)cc3)=C[C@H](O)[C@@H]2O)C(N)=O)O[C@H]1n1ccc(=O)[nH]c1=O | < 4.30 | < 4.30 | < 4.30 | < 4.30 | –
12 | NC(=O)[C@H](O[C@H]1OC(C(=O)N[C@H]2CCCCNC2=O)=C[C@H](O)[C@@H]1O)[C@H]1O[C@@H](n2ccc(=O)[nH]c2=O)[C@H](O)[C@@H]1O | < 4.30 | 4.46 | < 4.30 | < 4.30 | –
